Assay results from US6117841A, “Substituted peptidylamine calcium channel blockers” (Warner-Lambert Company, priority 1999, dated 2000).

target: T1, N-type Ca^2+ Channel (Homo sapiens, UniProt Q00975); assay: Measurement of N-type Ca2+ channel blocking potencies in IMR-32 cells using the fluorescent Ca2+ indicator Indo-1; type: cell-based; conditions: 1 μM; IMR-32 cells, 5 μM nitrendipine
T1 construct: host or cells: IMR-32 cells differentiated with dibutyryl cAMP and bromodeoxyuridine
Procedure, shortened: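 IMR-32 cells were differentiated 7–13 days (1 mM dibutyryl cAMP, 2.5 µM BrdU) and Indo-1-loaded. They were preincubated 10 min at 30 °C with compound and 5 µM nitrendipine in HEPES/Tris pH 7.4 HBSS with 0.5% BSA, then KCl/CaCl2-depolarized. The peak-minus-basal 400/490 nm emission ratio gave IC50 by four-parameter logistic fit.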

T1 sequence (Q00975 whole entry): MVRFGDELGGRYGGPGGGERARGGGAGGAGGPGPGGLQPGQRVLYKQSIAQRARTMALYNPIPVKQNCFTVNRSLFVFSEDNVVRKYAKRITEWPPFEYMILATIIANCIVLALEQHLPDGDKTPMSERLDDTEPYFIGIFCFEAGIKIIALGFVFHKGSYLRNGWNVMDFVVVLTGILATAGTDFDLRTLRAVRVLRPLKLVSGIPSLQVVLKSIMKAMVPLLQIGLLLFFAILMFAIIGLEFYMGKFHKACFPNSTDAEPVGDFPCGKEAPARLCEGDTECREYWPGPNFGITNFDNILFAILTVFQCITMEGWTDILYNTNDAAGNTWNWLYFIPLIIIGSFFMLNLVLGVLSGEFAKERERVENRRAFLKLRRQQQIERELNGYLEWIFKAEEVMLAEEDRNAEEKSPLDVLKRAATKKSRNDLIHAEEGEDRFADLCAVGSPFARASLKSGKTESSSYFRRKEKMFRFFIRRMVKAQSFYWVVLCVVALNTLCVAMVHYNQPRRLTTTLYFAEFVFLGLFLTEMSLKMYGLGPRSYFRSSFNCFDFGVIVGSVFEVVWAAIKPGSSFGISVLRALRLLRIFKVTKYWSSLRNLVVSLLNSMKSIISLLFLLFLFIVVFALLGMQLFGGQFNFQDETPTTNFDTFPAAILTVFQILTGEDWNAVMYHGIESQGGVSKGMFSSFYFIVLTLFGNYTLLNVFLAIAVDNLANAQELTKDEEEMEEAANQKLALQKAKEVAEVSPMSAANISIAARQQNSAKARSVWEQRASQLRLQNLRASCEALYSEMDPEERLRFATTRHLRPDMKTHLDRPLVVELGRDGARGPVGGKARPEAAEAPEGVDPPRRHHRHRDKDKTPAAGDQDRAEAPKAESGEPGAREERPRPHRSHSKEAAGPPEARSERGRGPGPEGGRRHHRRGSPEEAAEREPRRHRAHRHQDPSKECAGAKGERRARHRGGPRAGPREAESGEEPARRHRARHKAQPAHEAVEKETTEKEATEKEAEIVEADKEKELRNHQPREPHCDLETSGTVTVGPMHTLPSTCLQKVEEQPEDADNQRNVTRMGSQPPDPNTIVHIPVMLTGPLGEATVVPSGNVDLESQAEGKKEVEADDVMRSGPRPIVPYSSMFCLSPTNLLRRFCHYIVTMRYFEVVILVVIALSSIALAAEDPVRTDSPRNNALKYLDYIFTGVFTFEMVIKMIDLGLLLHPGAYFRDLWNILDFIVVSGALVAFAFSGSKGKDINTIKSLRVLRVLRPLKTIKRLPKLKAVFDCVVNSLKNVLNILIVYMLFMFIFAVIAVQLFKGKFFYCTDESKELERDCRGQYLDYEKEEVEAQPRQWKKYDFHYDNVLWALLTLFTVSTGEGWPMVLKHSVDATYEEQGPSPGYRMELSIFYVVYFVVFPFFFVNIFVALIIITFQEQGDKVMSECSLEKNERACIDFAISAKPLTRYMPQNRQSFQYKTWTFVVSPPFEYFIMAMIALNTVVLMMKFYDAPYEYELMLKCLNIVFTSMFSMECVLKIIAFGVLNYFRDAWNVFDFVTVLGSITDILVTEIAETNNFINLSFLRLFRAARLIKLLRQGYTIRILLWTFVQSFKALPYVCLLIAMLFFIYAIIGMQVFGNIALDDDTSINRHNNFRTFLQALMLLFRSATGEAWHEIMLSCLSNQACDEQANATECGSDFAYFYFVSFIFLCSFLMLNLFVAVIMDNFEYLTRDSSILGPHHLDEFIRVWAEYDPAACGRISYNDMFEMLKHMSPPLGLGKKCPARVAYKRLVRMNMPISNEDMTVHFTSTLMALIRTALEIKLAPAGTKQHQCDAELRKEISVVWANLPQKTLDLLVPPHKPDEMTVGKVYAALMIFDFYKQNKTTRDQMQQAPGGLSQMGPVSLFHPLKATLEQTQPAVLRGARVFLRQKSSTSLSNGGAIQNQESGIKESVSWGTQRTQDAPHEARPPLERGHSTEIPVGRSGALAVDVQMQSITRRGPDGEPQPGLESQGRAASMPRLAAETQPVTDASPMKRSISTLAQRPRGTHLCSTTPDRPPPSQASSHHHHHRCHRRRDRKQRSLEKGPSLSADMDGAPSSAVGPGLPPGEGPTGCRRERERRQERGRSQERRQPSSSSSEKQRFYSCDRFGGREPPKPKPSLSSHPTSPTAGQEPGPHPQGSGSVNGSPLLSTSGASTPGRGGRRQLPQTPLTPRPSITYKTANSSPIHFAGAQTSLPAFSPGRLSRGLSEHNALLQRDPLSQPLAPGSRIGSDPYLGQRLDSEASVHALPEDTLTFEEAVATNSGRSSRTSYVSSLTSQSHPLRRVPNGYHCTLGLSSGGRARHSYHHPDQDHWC
T1 sequence (P54284 whole entry partner): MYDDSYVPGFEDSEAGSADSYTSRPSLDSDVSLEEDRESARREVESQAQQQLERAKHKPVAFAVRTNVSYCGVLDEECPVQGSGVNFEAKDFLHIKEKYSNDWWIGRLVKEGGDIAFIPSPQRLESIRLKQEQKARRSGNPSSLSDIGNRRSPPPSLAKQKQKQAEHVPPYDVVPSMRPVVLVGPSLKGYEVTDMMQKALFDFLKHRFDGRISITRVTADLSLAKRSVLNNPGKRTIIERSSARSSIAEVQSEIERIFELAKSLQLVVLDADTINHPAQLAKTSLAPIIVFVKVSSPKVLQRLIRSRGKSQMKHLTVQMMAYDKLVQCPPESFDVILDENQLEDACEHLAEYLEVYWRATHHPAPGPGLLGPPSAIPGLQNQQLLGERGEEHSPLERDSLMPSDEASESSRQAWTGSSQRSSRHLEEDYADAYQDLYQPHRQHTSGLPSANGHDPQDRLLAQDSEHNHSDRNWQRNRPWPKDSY
T1 sequence (P54289 25-946 partner limits assumed): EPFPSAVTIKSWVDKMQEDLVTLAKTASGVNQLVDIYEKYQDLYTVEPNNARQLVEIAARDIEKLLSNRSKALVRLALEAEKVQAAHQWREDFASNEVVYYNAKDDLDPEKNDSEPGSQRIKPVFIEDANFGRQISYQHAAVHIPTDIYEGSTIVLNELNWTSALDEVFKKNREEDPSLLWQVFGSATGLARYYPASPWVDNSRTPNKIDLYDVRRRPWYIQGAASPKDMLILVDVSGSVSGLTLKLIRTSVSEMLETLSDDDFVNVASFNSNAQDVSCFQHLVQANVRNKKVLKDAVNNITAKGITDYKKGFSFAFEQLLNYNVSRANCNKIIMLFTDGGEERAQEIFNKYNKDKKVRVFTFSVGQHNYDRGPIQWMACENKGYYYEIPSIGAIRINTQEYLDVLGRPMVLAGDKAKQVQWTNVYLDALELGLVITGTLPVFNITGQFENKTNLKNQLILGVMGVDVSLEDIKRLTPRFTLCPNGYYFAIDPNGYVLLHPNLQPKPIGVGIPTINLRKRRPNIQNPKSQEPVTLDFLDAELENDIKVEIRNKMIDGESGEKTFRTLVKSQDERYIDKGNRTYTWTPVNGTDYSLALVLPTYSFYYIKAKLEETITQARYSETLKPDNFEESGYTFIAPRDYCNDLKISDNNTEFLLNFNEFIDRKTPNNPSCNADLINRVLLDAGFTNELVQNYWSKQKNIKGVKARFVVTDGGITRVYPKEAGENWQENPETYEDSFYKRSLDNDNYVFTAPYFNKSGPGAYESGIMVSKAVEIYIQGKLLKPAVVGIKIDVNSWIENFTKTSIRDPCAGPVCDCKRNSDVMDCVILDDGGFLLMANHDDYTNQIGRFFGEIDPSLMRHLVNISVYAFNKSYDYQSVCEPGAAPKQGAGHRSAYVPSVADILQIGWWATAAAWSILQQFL
T1 sequence (P54289 947-1103 partner limits assumed): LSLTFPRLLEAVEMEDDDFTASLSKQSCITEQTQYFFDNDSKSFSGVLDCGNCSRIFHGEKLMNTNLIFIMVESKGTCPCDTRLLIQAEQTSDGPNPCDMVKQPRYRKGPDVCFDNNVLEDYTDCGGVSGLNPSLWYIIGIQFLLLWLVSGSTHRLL

Row | IMR 32 % of Blockade @ 1 μM [%] | Structure (SMILES)
1 | 24 | CC(C)C[C@@H](C(=O)N[C@@H](Cc1ccc(OCc2ccccc2)cc1)C(=O)NC(C)(C)C)N1CCOCC1 (relative stereo) [Example 94, [S-(R*,R*)]-4-Methyl-2-morpholin-4-yl-pentanoic acid [2-(4-benzyloxy-phenyl)-1-tert-butylcarbamoyl-ethyl]-amide]
2 | 26 | CC(C)C[C@@H](C(=O)N[C@@H](Cc1ccc(OCc2ccccc2)cc1)C(=O)NC(C)(C)C)N(C)Cc1cccnc1 (relative stereo) [Example 101, [S-(R*,R*)]-4-Methyl-2-(methyl-pyridin-3-ylmethyl-amino)-pentanoic acid [2-(4-benzyloxy-phenyl)-1-tert-butylcarbamoyl-ethyl]-amide]

same assay, conditions: IMR-32 cells, 5 μM nitrendipine; Examples 116-140; read-out: IMR 32% of Blockade @

Row | IC50 [nM] | Structure (SMILES)
3 | 1400 | CC(C)CCN(C)[C@@H](CC(C)C)C(=O)N[C@@H](Cc1ccc(OCc2ccccc2)cc1)C(=O)NC(C)(C)CO (relative stereo) [Example 116, [S-(R*,R*)]4-Methyl-2-[methyl-(3-methylbutyl)-amino]-pentanoic acid [2-(4-benzyloxy-phenyl)-1-(2-hydroxy-1,1-dimethyl-ethylcarbamoyl)-ethyl]-amide]
4 | 640 | CC(C)CCN(C)[C@@H](CC(C)C)C(=O)N[C@@H](Cc1ccc(OCc2ccccc2)cc1)C(=O)NCCN1CCCCC1 (relative stereo) [Example 117, [S-(R*,R*)]-4-Methyl-2-[methyl-(3-methylbutyl)-amino]-pentanoic acid [2-(4-benzyloxy-phenyl)-1-(2-piperidin-1-yl-ethylcarbamoyl)-ethyl]-amide]
5 | 1900 | CC(C)CCN(C)[C@@H](CC(C)C)C(=O)N[C@@H](Cc1ccc(OCc2ccccc2)cc1)C(=O)NCCCN1CCCC1=O (relative stereo) [Example 118, [S-(R*,R*)]-4-Methyl-2-[methyl-(3-methyl-butyl)-amino]-pentanoic acid {2-(4-benzyloxy-phenyl)-1-[3-(2-oxo-pyrrolidin-1-yl)-propylcarbamoyl]-ethyl}-amide]
6 | 6000 | CC(C)C[C@@H](C(=O)N[C@@H](Cc1ccc(OCc2ccccc2)cc1)C(=O)NCCc1ccccn1)N1CCOCC1 (relative stereo) [Example 120, [S-(R*,R*)]-4-Methyl-2-morpholin-4yl-pentanoic acid [2-(4-benzyloxy-phenyl)-1-(2-pyridin-2-yl-ethylcarbamoyl)-ethyl]-amide]
7 | 3100 | CC(C)C[C@@H](C(=O)N[C@@H](Cc1ccc(OCc2ccccc2)cc1)C(=O)NCCN1CCSCC1)N1CCOCC1 (relative stereo) [Example 122, [S-(R*,R*)]-4-Methyl-2-morpholin-4-yl-pentanoic acid [2-(4-benzyloxy-phenyl)-1-(2-thiomorpholin-4-yl-ethylcarbamoyl)-ethyl]-amide]
8 | 13000 | CC(C)C[C@@H](C(=O)N[C@@H](Cc1ccc(OCc2ccccc2)cc1)C(=O)NC(C)(C)CO)N1CCOCC1 (relative stereo) [Example 123, [S-(R*,R*)]-4-Methyl-2-morpholin-4-yl-pentanoic acid [2-(4-benzyloxy-phenyl)-1-(2-hydroxy-1,1-dimethyl-ethylcarbamoyl)-ethyl]-amide]
9 | 7200 | CCC(CO)(CO)NC(=O)[C@H](Cc1ccc(OCc2ccccc2)cc1)NC(=O)[C@H](CC(C)C)N1CCOCC1 (relative stereo) [Example 124, [S-(R*,R*)]-4-Methyl-2-morpholin-4-yl-pentanoic acid [2-(4-benzyloxy-phenyl)-1-(1,1-bis-hydroxymethyl-propyl-carbamoyl)-ethyl]-amide]
10 | 9700 | CC(C)C[C@@H](C(=O)N[C@@H](Cc1ccc(OCc2ccccc2)cc1)C(=O)NCCN1CCCC1)N1CCOCC1 (relative stereo) [Example 125, [S-(R*,R*)]-4-Methyl-2-morpholin-4-yl-pentanoic acid [2-(4-benzyloxy-phenyl)-1-(2-pyrrolidin-1-yl-ethylcarbamoyl)-ethyl]-amide]
11 | 6400 | CC(C)C[C@@H](C(=O)N[C@@H](Cc1ccc(OCc2ccccc2)cc1)C(=O)N1CCC(O)CC1)N1CCOCC1 (relative stereo) [Example 126, [S-(R*,R*)]4-Methyl-2-morpholin-4-yl-pentanoic acid [2-(4-benzyloxy-phenyl)-1-(4-hydroxypiperidinylcarbamoyl)-ethyl]-amide]
12 | 7500 | CC(C)C[C@H](NC1CCOCC1)C(=O)N[C@@H](Cc1ccc(OCc2ccccc2)cc1)C(=O)NCCN1CCOCC1 (relative stereo) [Example 127, [S-(R*,R*)]-4-Methyl-2-(tetrahydropyran-4-yl-amino)-pentanoic acid [2-(4-benzyloxy-phenyl)-1-(2-morpholin4-yl-ethylcarbamoyl)-ethyl]-amide]

same assay, conditions: IMR-32 cells, K+ depolarization, 5 μM nitrendipine to block L-type channels; read-out: IMR 32 IC50

Row | IC50 [nM] | Structure (SMILES)
13 | 2100 | CC(C)C[C@H](NC1CCOCC1)C(=O)N[C@@H](Cc1ccc(OCc2ccccc2)cc1)C(=O)N1CCCCC1 (relative stereo) [Example 79, [S-(R*,R*)]-4-Methyl-2-(tetrahydro-pyran-4-ylamino)-pentanoic acid [1-(4-benzyloxy-benzyl)-2-oxo-2-piperidin-1-yl-ethyl]-amide]
14 | 160 | CC(C)C[C@@H](C(=O)N[C@@H](Cc1ccc(OCc2ccccc2)cc1)C(=O)NC(C)(C)C)N(C)Cc1ccc(Br)cc1 (relative stereo) [Example 81, [S-(R*,R*)]-2-[(4-Bromo-benzyl)-methyl-amino]4-methyl-pentanoic acid [2-(4-benzyloxy-phenyl)-1-tert-butylcarbamoyl-ethyl]-amide]
15 | 1300 | CC(C)C[C@@H](C(=O)N[C@@H](Cc1ccc(OCc2ccccc2)cc1)C(=O)NC(C)(C)C)N(C)Cc1ccc(O)cc1 (relative stereo) [Example 82, [S-(R*,R*)]-2-[(4-Hydroxy-benzyl)-methyl-amino]-4-methyl-pentanoic acid [2-(4-benzyloxy-phenyl)-1-tert-butylcarbamoyl-ethyl]-amide]
16 | 1300 | CC(C)C[C@@H](C(=O)N[C@@H](Cc1ccc(OCc2ccccc2)cc1)C(=O)NC(C)(C)C)N(C)Cc1ccncc1 (relative stereo) [Example 83, [S-(R*,R*)]-4-Methyl-2-(methyl-pyridin4-ylmethyl-amino)-pentanoic acid [2-(4-benzyloxy-phenyl)-1-tert-butylcarbamoyl-ethyl]-amide]
17 | 2800 | CC(C)C[C@@H](C(=O)N[C@@H](Cc1ccc(OCc2ccccc2)cc1)C(=O)NC(C)(C)C)N(C)C(C)C (relative stereo) [Example 86, [S-(R*,R*)]-2-(Isopropyl-methyl-amino)-4-methyl-pentanoic acid [2-(4-benzyloxy-phenyl)-1-tert-butylcarbamoyl-ethyl]-amide]
18 | 3100 | CC(C)C[C@@H](C(=O)N[C@@H](Cc1ccc(OCc2ccccc2)cc1)C(=O)NC(C)(C)C)N(C)C1CCOCC1 (relative stereo) [Example 87, [S-(R*,R*)]-4-Methyl-2-[methyl-(tetrahydro-pyran-4-yl)-amino]-pentanoic acid [2-(4-benzyloxy-phenyl)-1-tert-butylcarbamoyl-ethyl]-amide]
19 | 1000 | CC(C)C[C@@H](C(=O)N[C@@H](Cc1ccc(OCc2ccccc2)cc1)C(=O)NC(C)(C)C)N(C)Cc1ccc[nH]1 (relative stereo) [Example 89, [S-(R*,R*)]-4-Methyl-2-[methyl-(1H-pyrrol-2-ylmethyl)-amino]-pentanoic acid [2-(4-benzyloxy-phenyl)-1-tert-butylcarbamoyl-ethyl]-amide]
20 | 300 | CC(C)C[C@H](NCC1CCCCC1)C(=O)N[C@@H](Cc1ccc(OCc2ccccc2)cc1)C(=O)OC(C)(C)C (relative stereo) [Example 91, [S-(R*,R*)]-3-(4Benzyloxy-phenyl)-2-[2-(cyclohexylmethyl-amino)-4-methyl-pentanoylamino]-propionic acid tert-butyl ester]
21 | 4400 | CCOC(=O)CN(C)[C@@H](CC(C)C)C(=O)N[C@@H](Cc1ccc(OCc2ccccc2)cc1)C(=O)NC(C)(C)C (relative stereo) [Example 96, [S-(R*,R*)]-({1-[2-(4-Benzyloxy-phenyl)-1-tert-butylcarbamoyl-ethylcarbamoyl]-3-methyl-butyl}-methyl-amino)-acetic acid ethyl ester]
22 | 400 | COc1ccc(CN(C)[C@@H](CC(C)C)C(=O)N[C@@H](Cc2ccc(OCc3ccccc3)cc2)C(=O)NC(C)(C)C)cc1 (relative stereo) [Example 98, [S-(R*,R*)]-2-[(4-Methoxy-benzyl)-methyl-amino]-4-methyl-pentanoic acid [2-(4-benzyloxy-phenyl)-1-tert-butylcarbamoyl-ethyl]-amide]
23 | 1400 | CC(C)C[C@@H](C(=O)N[C@@H](Cc1ccc(OCc2ccccc2)cc1)C(=O)NC(C)(C)C)N1CCCCC1 (relative stereo) [Example 99, [S-(R*,R*)]-4-Methyl-2-piperidin-1-yl-pentanoic acid [2-(4-benzyloxy-phenyl)-1-tert-butylcarbamoyl-ethyl]-amide]
24 | 2000 | CCN[C@@H](CC(C)C)C(=O)N[C@@H](Cc1ccc(OCc2ccccc2)cc1)C(=O)NC(C)(C)C (relative stereo) [Example 100, [S-(R*,R*)]-2-Ethylamino-4-methyl-pentanoic acid [2-(4-benzyloxy-phenyl)-1-tert-butylcarbamoyl-ethyl]-amide]
25 | 240 | CC(C)CCN[C@@H](CC(C)C)C(=O)N[C@@H](Cc1ccc(OCc2ccccc2)cc1)C(=O)NC(C)(C)C (relative stereo) [Example 105, [S-(R*,R*)]-4-Methyl-2-(3-methyl-butylamino)-pentanoic acid [2-(4-benzyloxy-phenyl)-1-tert-butylcarbamoyl-ethyl]-amide]
